Experiment [1] concerns the target h-mT1R2-EX5/mT1R3 (UniProt Q8TE23+Q925D8, A537S/A564V/A568V/A570T/A649T/A658V/A782V/E530V/E534N/E542M/E548N/F525Y/F665L/G696N/G701T/H528R/I490V/I510L/I518V/I595M/I643V/I645L/I692L/I695G/K504M/K626T/K714N/L521P/L571I/L578I/L610P/L631F/L636F/L639V/L688V/L702I/L734M/L800F/M492I/M616G/M682V/M690V/M748V/N540G/N541S/N721H/P638T/P824S/Q536L/Q546K/Q555R/Q676H/R498S/R667S/S501P/S547N/S550A/S628F/S663R/S670G/S681F/S703N/S727G/S784D/S804G/T529S/T549I/T609V/T629S/T642S/T705I/T706G/T716I/V508I/V512P/V557A/V585L/V613L/V617M/V673M/V687A/V691A/V694A/V718L/V741L/V774I/V791M/Y533F/Y615F/Y671F/Y769S/Y783H). As to conditions: Table 4; genes h-mTEX5/mT3 (h-mT1R2-EX5, mT1R3); HEK293E cells.

In experiment [2] the target is hT1R2/T1R3mosaicC (UniProt Q8TE23+Q925D8, A558R/A588V/A645S/A698V/A702T/A793V/A807V/C582S/C678S/D172E/D176A/D217E/E221Q/E725V/F541I/F612A/F622V/F695L/H728R/I617V/I706V/I740A/I803L/K555R/K565R/K818R/K827G/L560F/L684P/L735F/L823M/L825Q/M644L/M744T/N203E/N231A/N547G/N675D/P545F/P561R/P564S/Q195T/Q550E/Q611L/Q757R/Q795R/Q831P/R173L/R632Q/S168G/S205G/S228A/S576L/S595F/S610P/S635P/S637R/S679G/S717H/T199E/T542A/T663I/T694M/T813A/V197A/V198A/V573A/V584A/V718M/V723A/V729T/V738A/V805L/V812A/V821L/W599R/W676R/W824R/Y680C/Y794L). The note with it: Table 6; genes hT2/T1R3mC (hT1R2, T1R3mC); HEK293E cells.
Chain of hT1R2/T1R3mosaicC (Q8TE23 20-839, stated change not applied): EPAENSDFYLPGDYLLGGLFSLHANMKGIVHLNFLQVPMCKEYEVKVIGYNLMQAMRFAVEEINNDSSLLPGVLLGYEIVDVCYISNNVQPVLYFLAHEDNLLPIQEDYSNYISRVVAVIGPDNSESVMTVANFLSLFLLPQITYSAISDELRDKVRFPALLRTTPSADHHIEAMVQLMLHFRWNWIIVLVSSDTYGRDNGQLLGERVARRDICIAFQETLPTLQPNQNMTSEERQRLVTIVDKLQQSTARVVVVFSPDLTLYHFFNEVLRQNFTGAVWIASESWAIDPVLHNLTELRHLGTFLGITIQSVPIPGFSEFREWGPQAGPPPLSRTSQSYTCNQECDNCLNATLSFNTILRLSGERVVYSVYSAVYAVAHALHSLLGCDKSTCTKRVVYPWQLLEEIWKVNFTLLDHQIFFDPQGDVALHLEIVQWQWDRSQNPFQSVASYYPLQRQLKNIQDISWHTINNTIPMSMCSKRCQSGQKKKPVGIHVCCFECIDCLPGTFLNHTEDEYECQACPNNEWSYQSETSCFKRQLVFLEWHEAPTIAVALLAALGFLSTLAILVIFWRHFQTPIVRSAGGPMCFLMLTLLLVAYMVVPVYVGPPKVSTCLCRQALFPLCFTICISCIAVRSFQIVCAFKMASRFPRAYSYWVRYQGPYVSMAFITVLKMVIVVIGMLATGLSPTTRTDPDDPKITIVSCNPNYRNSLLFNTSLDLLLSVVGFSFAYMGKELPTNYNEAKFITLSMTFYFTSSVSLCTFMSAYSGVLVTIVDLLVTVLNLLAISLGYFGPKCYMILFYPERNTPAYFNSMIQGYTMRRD
Chain of hT1R2/T1R3mosaicC (Q925D8 with tags, fused parts or gaps with the stated changes limits assumed): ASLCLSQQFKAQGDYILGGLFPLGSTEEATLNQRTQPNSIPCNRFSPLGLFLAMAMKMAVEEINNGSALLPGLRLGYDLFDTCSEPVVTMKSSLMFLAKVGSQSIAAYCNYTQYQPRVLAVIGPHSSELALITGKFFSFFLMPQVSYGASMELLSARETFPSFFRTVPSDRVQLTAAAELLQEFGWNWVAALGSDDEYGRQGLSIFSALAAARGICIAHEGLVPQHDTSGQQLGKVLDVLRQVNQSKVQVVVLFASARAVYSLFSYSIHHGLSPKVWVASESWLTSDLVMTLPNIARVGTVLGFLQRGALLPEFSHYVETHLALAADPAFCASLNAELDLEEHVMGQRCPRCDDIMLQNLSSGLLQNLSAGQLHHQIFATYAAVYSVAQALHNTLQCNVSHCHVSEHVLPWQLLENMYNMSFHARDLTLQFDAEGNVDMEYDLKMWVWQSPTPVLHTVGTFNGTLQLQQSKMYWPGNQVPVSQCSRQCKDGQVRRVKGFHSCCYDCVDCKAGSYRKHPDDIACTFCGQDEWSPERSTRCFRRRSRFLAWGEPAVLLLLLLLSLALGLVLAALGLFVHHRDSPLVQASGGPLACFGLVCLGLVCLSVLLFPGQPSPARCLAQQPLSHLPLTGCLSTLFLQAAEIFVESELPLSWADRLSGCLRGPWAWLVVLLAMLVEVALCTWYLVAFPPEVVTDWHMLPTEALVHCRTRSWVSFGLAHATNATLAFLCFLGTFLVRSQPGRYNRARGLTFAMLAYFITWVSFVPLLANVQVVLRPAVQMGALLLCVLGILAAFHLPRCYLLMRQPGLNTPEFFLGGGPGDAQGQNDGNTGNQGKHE

Residues, ends and D or L forms follow the SMILES beside them.

Chain of h-mT1R2-EX5/mT1R3 (Q8TE23 with tags, fused parts or gaps with the stated changes limits assumed): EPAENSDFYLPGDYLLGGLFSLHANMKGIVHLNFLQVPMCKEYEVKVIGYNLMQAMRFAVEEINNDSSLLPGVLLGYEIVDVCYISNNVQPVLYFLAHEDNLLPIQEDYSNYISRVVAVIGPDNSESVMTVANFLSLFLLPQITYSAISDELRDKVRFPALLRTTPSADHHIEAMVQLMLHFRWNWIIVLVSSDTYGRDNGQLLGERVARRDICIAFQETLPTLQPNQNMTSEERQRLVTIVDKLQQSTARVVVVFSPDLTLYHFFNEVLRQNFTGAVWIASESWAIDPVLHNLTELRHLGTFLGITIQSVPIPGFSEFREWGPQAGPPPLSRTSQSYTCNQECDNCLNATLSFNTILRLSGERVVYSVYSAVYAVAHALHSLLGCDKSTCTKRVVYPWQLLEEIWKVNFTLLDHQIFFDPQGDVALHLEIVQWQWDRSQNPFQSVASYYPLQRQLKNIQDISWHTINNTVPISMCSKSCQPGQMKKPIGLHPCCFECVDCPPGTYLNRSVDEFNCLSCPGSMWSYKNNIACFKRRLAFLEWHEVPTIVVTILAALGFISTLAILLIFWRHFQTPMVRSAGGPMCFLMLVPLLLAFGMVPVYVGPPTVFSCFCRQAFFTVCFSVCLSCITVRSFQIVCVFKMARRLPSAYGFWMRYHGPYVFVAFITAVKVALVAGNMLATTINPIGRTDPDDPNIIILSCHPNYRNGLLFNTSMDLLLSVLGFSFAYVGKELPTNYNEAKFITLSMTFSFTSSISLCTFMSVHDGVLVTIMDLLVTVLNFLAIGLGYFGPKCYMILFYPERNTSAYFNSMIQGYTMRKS
Chain of h-mT1R2-EX5/mT1R3 (Q925D8 21-858, stated change not applied): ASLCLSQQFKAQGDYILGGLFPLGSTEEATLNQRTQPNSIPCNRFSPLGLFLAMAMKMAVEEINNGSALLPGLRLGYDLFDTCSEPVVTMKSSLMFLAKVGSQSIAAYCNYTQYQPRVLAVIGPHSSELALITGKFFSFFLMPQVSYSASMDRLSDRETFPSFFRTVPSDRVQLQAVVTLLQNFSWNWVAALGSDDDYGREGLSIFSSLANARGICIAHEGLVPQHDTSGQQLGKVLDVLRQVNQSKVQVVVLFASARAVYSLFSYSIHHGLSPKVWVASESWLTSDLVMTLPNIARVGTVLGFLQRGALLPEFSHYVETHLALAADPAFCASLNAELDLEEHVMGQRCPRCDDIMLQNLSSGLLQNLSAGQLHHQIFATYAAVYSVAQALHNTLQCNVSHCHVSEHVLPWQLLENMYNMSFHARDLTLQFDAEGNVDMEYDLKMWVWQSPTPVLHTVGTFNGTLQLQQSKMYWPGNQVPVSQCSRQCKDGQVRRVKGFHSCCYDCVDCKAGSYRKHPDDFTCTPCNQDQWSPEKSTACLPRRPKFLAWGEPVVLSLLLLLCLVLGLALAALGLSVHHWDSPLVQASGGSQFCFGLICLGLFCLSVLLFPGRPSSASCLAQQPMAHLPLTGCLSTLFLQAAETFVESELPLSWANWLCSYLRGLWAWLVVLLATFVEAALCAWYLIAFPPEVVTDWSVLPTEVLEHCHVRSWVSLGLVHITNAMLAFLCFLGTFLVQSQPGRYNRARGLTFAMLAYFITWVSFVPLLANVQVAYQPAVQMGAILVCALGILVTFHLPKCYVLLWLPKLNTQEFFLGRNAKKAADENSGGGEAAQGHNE

Turning to `CC1=CC(=O)NS(=O)(=O)O1` [Acesulfame K, acesulfame potassium], the S/N in experiment [1] came out at 3.7; in experiment [2], 3.2. Take `COC(=O)[C@H](Cc1ccccc1)NC(=O)[C@H](CC(=O)O)NCCCc1ccc(OC)c(O)c1` [Advantame, advantame]: the S/N in experiment [1] worked out at 7.0; in experiment [2], 7.8. As for `COC(=O)[C@H](Cc1ccccc1)NC(=O)[C@@H](N)CC(=O)O` [Aspartame, aspartame] (HELM PEPTIDE1{D.F.[CO[*:1]]}$$$$V2.0), the S/N in experiment [1] was 5.5; in experiment [2] it was 4.5. In experiment [2], `COc1ccc(CCC(=O)c2c(O)cc(O[C@@H]3O[C@H](CO)[C@@H](O)[C@H](O)[C@H]3O[C@@H]3O[C@@H](C)[C@H](O)[C@@H](O)[C@H]3O)cc2O)cc1O` [NHDC, neohesperidin dihydrochalcone] registered a S/N of 3.8. `COC(=O)[C@H](Cc1ccccc1)NC(=O)[C@H](CC(=O)O)NCCC(C)(C)C` [Neotame, neotame]: the S/N is 5.2 in experiment [1] and 7.1 in experiment [2]. As for `C[C@H](NC(=Nc1ccc(C#N)cc1)NCC(=O)O)c1ccccc1` [SC-45647, [3-[(S)-1-phenylethyl]-2-(4-cyanophenyl)guanidino]acetic acid], the results for the S/N in experiment [1] and in experiment [2] were 5.3 and 5.4, respectively. Take `O=C1NS(=O)(=O)c2ccccc21.[Na]` [Saccharin Na, sodium saccharin]: the S/N in experiment [1] came out at 3.8; in experiment [2], 3.6.

`OC[C@H]1O[C@H](O[C@]2(CCl)O[C@H](CCl)[C@@H](O)[C@@H]2O)[C@H](O)[C@@H](O)[C@H]1Cl` [Sucralose, sucralose]: the S/N in experiment [1] is recorded as 5.9; in experiment [2], 5.7.

For `OC[C@H]1O[C@@](CO)(O[C@H]2O[C@H](CO)[C@@H](O)[C@H](O)[C@H]2O)[C@@H](O)[C@@H]1O` [Sucrose, sucrose], the S/N came to 3.7 in experiment [1] and 3.4 in experiment [2].

Source of the values: patent US9341616B2, “Sweet taste receptor chimeric proteins and use thereof” (AJINOMOTO CO., INC., priority 2014, dated 2016).
